# Experimental data as given in publication PMC9499324, “Glycyrrhizic Acid Derivatives Bearing Amino Acid Residues in the Carbohydrate Part as Dengue Virus E Protein Inhibitors: Synthesis and Antiviral Activity” (International Journal of Molecular Sciences, 2022).
# Assays:
# [1] = system: DENV2; test: DENV2 infectivity inhibition (anti-NS4B immunofluorescence) in Vero E6 cells; format: cell-based, Dengue virus type 2; settings: Dengue virus; for inhibition at 10 µM: Vero C1008, 10 μM compound, DENV2, Vero E6 cells, 96 h, read-out: Inhibition (%) at 10 μM (reduction of NS4B-positive cells)
# Description: […] In CPE and infectivity reduction assays, […], and then photographed by microscope for examining the levels of DENV2-induced CPE in infected cells treated with or without GL conjugate. Meanwhile, the cells were further performed using immunofluorescence assay (IFA) with anti-DENV NS4B antibodies (GeneTex, Inc., Hsinchu, Taiwan) and anti-rabbit IgG antibodies conjugated with AF555 (ThermoFisher, Waltham, MA, USA) plus DAPI (4′,6-diamidino-2-phenylindole) nuclear staining. Finally, the DENV-2 infectivity was measured according to the ratio of DENV NS4B-positive cells to DAPI-stained cells in the well of mock-treated or treated cells, as described in [45, 59, 60].
# [2] = MTT cytotoxicity assay in A549 cells; format: cell-based; settings: human
# Protocol: Vero E6 cells and A549 cells (5 × 10^3 cells/well) were treated with the serial dilution of GL conjugates at 0, 0.1, 10, 20, and 50 μM for examining the in vitro cytotoxicity of tested compounds. After 96-h incubation at 37 °C, the cells were incubated with MTT (3-(4,5-Dimethylthiazol-2-yl)-2,5-Diphenyltetrazolium Bromide) solution for another 4 h incubation, mixed with DMSO for 15 min after the removal of media, and then measured the absorbance at 570 nm. The viability (%) of treated cells was quantified according to the reduced ability of MTT. Finally, the concentration for reducing 50% cell viability (the 50% cytotoxic concentration, CC50) was determined by regression analysis of the concentration–response survival curve.
# [3] = system: DENV1; test: DENV1 infectivity inhibition assay in Vero E6 cells; format: cell-based; settings: Dengue virus, DENV1, Vero C1008, read-out: IC50 in the DENV1 infectivity inhibition assay
# Protocol: In the antiviral screening assay, each tested GL conjugate at 10 μM was used to survey the anti-DENV activity in Vero E6 cells using cytopathic effect (CPE) and infectivity reduction assays as described in our prior report. In CPE and infectivity reduction assays, Vero E6 cells were infected by DENV2 at an MOI of 0.005 and simultaneously treated 10 μM of indicated GL conjugate for 96 h, and then photographed by microscope for examining the levels of DENV2-induced CPE in infected cells treated with or without GL conjugate. Meanwhile, the cells were further performed using immunofluorescence assay (IFA) with anti-DENV NS4B antibodies (GeneTex, Inc., Hsinchu, Taiwan) and anti-rabbit IgG antibodies conjugated with AF555 (ThermoFisher, Waltham, MA, USA) plus DAPI (4′,6-diamidino-2-phenylindole) nuclear staining. Finally, the DENV-2 infectivity was measured according to the ratio of DENV NS4B-positive cells to DAPI-stained cells in the well of mock-treated or treated cells, as described in [45, 59, 60].
# Supplemental Figure S25. Infectivity inhbition of DENV1 in Vero E6 cells by active GL conjugates. Cells were infected with DENV1 in the presence and absence of Compounds 3, 6, 11, and 21 at the concentrations of 0.1, 1, and 10 μM, respectively. Treated/infected Vero E6 cells were also analyzed using immunofluorescence staining with anti-DENV2 NS4B antibodies.
# Residual infectivity was discovered by the ratio of DENV2 NS4B positive cells to total cells stained with DAPI, and relative inhibition activity was determined based on full infectivity with the subtraction of its residual infectivity.
# (1 picture or pasted object on this page, not shown here)
# [4] = system: DENV2 CprME/JEV SRIPs; test: E protein-mediated attachment assay with chimeric DENV2 CprME/JEV SRIPs on Vero E6 cells; format: cell-based, Dengue virus type 2; settings: Dengue virus, DENV2, Vero C1008, 1 h, read-out: IC50 of E-mediated attachment against DENV2 CprME/JEV SRIPs
# Protocol: Figure 6 Attachment inhibition of chimeric DENV2 CprM-E/JEV and wild-type JEV SRIPs by active GL conjugates. Vero E6 cells were pre-cooled and incubated with freshly prepared mixtures of DENV2 CprM-E/JEV or wild-type JEV SRIPs, with active GL derivatives 3 (A), 6 (B), 11 (C), and 21 (D) at 4 °C for 1 h, respectively. After the removal of the mixtures, the cells were kept at 37 °C for 18 h and then an immunofluorescent assay with anti-JEV NS5 antibodies plus DAPI staining was performed. Finally, the inhibition percentage of SRIP attachment infectivity was measured as follows: 1-(percentage of JEV NS5 positivity in treated cells/percentage of JEV NS5 positivity in mock-treated cells). * p < 0.05; *** p < 0.001 compared with untreated, infected cells.
# DNA-launched cytomegaloviruses (CMV) promoter-driven JEV and ZIKV replicons had been constructed, as described in our prior reports. […] After the removal of the mixture (the compound and SRIP), the cells were incubated at 37 °C for 18 h, and then were analyzed by immunofluorescent assay with anti-JEV NS3 and anti-ZIKV NS5 antibodies, respectively, plus DAPI staining for determining the residual infectivity of wild-type and chimeric SRIPs, as described above.
smiles,measurement,setting,value
"COC(=O)[C@H](NC(=O)[C@H]1O[C@@H](O[C@H]2[C@H](OC3CC[C@@]4(C)C(CC[C@]5(C)C4C(=O)C=C4C6C[C@@](C)(C(=O)O)CC[C@]6(C)CC[C@]45C)C3(C)C)O[C@H](C(=O)N[C@@H](C(=O)OC)C(C)C)[C@@H](O)[C@@H]2O)[C@H](O)[C@@H](O)[C@@H]1O)C(C)C (stereo partly drawn) [Compound 3, 3-O-{2-O-[N-(β-D-Glucopyranosyluronoyl)-D-valinemethyl ester]-N-(β-D-glucopyranosyluronoyl)-D-valinemethyl ester}-(3β, 20β)-11-oxo-30-noroleane-12-ene-30-oic Acid]",inhibition at 10 µM,[1],90.7%
same,CC50 at 96 h,[2],> 100 µM
same,IC50,[3],2.81 ± 0.54 µM
same,IC50,[4],6.69 µM
"CCOC(=O)[C@H](Cc1ccccc1)NC(=O)[C@H]1O[C@@H](O[C@H]2[C@H](OC3CC[C@@]4(C)C(CC[C@]5(C)C4C(=O)C=C4C6C[C@@](C)(C(=O)O)CC[C@]6(C)CC[C@]45C)C3(C)C)O[C@H](C(=O)N[C@@H](Cc3ccccc3)C(=O)OCC)[C@@H](O)[C@@H]2O)[C@H](O)[C@@H](O)[C@@H]1O (stereo partly drawn) [Compound 11, 3-O-{2-O-[N-(β-D-Glucopyranosyluronoyl)-L-phenylalanineethyl ester]-N-(β-D-Glucopyranosyluronoyl)-L-phenylalanineethyl ester}-(3β, 20β)-11-oxo-30-noroleane-12-ene-30-oic Acid]",IC50,"[1]; DENV2, Vero C1008, read-out: Inhibition of DENV2 Infectivity (IC50, μM), Vero E6 cells",0.17 to 0.5 µM
same,inhibition at 10 µM,[1],91.3%
same,CC50 at 96 h,[2],> 100 µM
same,IC50,[3],1.25 ± 0.167 µM
same,IC50,[4],2.82 µM
